Laboratory results taken from PMC7116001 (Science (New York, N.Y.), 2020).

Molecular target: T1, S. acidocaldarius 20S proteasome (Saci_0613/Saci_0662ΔN/Saci_0909ΔN) (Sulfolobus acidocaldarius, UniProt Q4JAA8)
T1 sequence (Q4JAA8 11-203): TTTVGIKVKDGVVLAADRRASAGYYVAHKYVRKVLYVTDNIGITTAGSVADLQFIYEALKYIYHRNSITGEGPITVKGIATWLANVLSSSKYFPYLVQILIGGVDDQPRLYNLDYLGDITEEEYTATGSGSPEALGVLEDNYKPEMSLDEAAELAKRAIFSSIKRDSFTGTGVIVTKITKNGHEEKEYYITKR
T1 sequence (Q4JB24 1-242 partner): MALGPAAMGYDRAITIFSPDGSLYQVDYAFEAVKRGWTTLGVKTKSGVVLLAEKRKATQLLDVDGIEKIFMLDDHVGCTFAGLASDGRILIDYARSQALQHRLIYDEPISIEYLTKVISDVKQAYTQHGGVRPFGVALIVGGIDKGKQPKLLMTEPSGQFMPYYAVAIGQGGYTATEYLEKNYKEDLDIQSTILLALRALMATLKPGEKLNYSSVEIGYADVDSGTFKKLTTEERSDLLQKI
T1 sequence (Q4JAY3 7-195 partner): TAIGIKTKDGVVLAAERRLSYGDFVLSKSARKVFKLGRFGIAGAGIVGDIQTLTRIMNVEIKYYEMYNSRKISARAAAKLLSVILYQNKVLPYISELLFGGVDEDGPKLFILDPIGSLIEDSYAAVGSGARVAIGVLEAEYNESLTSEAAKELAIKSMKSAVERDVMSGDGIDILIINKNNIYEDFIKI
Assay: degradation of Urm1
Format: biochemical
Conditions: substrate 3xUrm1-GFP; covalent (reversible boronate on Thr1, modelled)

CC(C)C[C@H](NC(=O)[C@H](Cc1ccccc1)NC(=O)c1cnccn1)B(O)O [bortezomib]
rate of substrate degradation: with different concentrations of inhibitor, the rate of substrate degradation was diminished
